Key:
Format in all cases: in vitro ADME
[1] = Compound stability in human liver microsomes; settings: for CLint scaled at 1 μM: pH 7.4, in vivo CLint extrapolated; for half-life at 1 μM: pH 7.4, read-out: Human T1/2
Procedure: (§1) Human or rat liver microsomes incubations were conducted in duplicate in polypropylene tubes. […] Compounds were dissolved in DMSO and diluted with PBS such that the final concentration of DMSO was 0.05%. The enzymatic reactions were commenced with the addition of protein after a 3 min preincubation and incubated in a water bath open to the air at 37° C. Reactions were terminated at various time points (0, 5, 10, 15, 30, 60 min) by adding equal volume of ice-cold acetonitrile. The samples were stored at −80° C. until LC/MS/MS assays.
(§2) The concentrations of compounds in the incubation mixtures of human (or rat) liver microsomes were determined by a LC/MS/MS method. The ranges of the linearity in the concentration range were determined for each tested compounds.
(§3) A parallel incubation was performed using denatured microsomes as the negative control, and reactions were terminated at various time points (for example, 0, 15, 60 min) after incubation at 37° C.
(§4) Dextromethorphan (70 μM) was selected as the positive control, and reactions were terminated at various time points (0, 5, 10, 15, 30, 60 min) after incubation at 37° C. Both positive and negative control samples were included in each assay to ensure the integrity of the microsomal incubation system.
(§5) Alternatively, the stability of some of the compounds disclosed herein in human (or rat) liver microsomes were also conducted in the following protocol. The incubations were conducted in duplicate in polypropylene tubes. […] Compounds were dissolved in DMSO and diluted with K-buffer such that the final concentration of DMSO was 0.2%. The enzymatic reactions were commenced with the addition of 15 μL of NADPH (final concentration: 2 mM) after 10 min preincubation and incubated in a 37° C. incubator. Reactions were terminated at various time points (0, 15, 30, 60 min) by adding 135 μL acetonitrile (contain IS). Protein is removed by centrifugation with 4,000 rpm, 10 min.
(§6) In the above protocol, ketanserin (1 μM) was selected as the positive control, and reactions were terminated at various time points (0, 15, 30, 60 min) after incubation at 37° C. The positive control sample was included in each assay to ensure the integrity of the microsomal incubation system.
(§7) The concentrations of compounds in liver microsome incubations were plotted as a percentage of the relevant zero time point control for each reaction. The in vivo CLint were extrapolated (ref: Naritomi et al., Prediction of human hepatic clearance from in vivo animal experiments and in vitro metabolic studies with liver microsomes from animals and humans, Drug Metab. Dispos., 2001, 29: 1316-1324.) […]

[2] = Compound stability in rat liver microsomes; settings: for CLint scaled at 1 μM: pH 7.4, in vivo CLint extrapolated; for half-life at 1 μM: pH 7.4, read-out: Rat T1/2
Procedure: as §1, §2, §3, §4, §5, §6, §7

Stability in rat plasma = settings: read-out: Rat T1/2
Procedure: (§8) Similarly, selected compounds of the invention were also assessed for their stability in human and rat plasma, and the results are listed in Table 3.

[3] = Stability in human plasma; settings: for Human T1/2: 2 μM; for half-life at 2 μM: read-out: Human T1/2
Procedure: as §8

Row | CLint scaled at 1 μM [1] | half-life at 1 μM [1] | CLint scaled at 1 μM [2] | half-life at 1 μM [2] | half-life at 2 μM (Stability in rat plasma) | Human T1/2 [3] | Human T1/2 ([1]; 1 μM) | half-life at 2 μM [3] | SMILES
1 | 60.2 mL/min/kg | 28.9 min | 142 mL/min/kg | 17.5 min | – | – | – | – | CCCS(=O)(=O)N(C(=O)OCC)c1ccc(F)c(C(=O)c2c[nH]c3ncc(-c4ccc(Cl)cc4)cc23)c1F [Ex. 1, ethyl 3-(5-(4-chlorophenyl)-1H-pyrrolo[2,3-b]pyridine-3-carbonyl)-2,4-difluorophenyl(propylsulfonyl)carbamate]
2 | 29.2 mL/min/kg | 59.5 min | 193 mL/min/kg | 12.8 min | – | – | – | – | CCCS(=O)(=O)N(C(=O)c1ccccc1)c1ccc(F)c(C(=O)c2c[nH]c3ncc(-c4ccc(Cl)cc4)cc23)c1F [Ex. 2, N-(3-(5-(4-chlorophenyl)-1H-pyrrolo[2,3-b]pyridine-3-carbonyl)-2,4-difluorophenyl)-N-(propylsulfonyl)benzamide]
3 | – | – | 46.8 mL/min/kg | 53.1 min | 68.8 min | ∞ | ∞ | – | CCCS(=O)(=O)Nc1ccc(F)c(C(=O)c2cn(COC(=O)C(C)(C)C)c3ncc(-c4ccc(Cl)cc4)cc23)c1F [Ex. 7a, (5-(4-chlorophenyl)-3-(2,6-difluoro-3-(propylsulfonamido)benzoyl)-1H-pyrrolo[2,3-b]pyridin-1-yl)methyl pivalate]
4 | – | – | – | – | 28.6 min | – | – | 113 min | CCCS(=O)(=O)Nc1ccc(F)c(C(=O)c2cn(COC(=O)C(C)C)c3ncc(-c4ccc(Cl)cc4)cc23)c1F [Ex. 9, (5-(4-chlorophenyl)-3-(2,6-difluoro-3-(propylsulfonamido)benzoyl)-1H-pyrrolo[2,3-b]pyridin-1-yl)methyl isobutyrate]
5 | – | – | – | – | 55.8 min | – | – | 88.1 min | CCCS(=O)(=O)Nc1ccc(F)c(C(=O)c2cn(C(C)OC(=O)CC)c3ncc(-c4ccc(Cl)cc4)cc23)c1F (stereo not drawn) [Ex. 10, 1-(5-(4-chlorophenyl)-3-(2,6-difluoro-3-(propylsulfonamido)benzoyl)-1H-pyrrolo[2,3-b]pyridin-1-yl)ethyl propionate]
6 | – | – | – | – | 49.8 min | – | – | 162 min | CCCS(=O)(=O)Nc1ccc(F)c(C(=O)c2cn(C(OC(=O)CC)C(C)C)c3ncc(-c4ccc(Cl)cc4)cc23)c1F (stereo not drawn) [Ex. 11, 1-(5-(4-chlorophenyl)-3-(2,6-difluoro-3-(propylsulfonamido)benzoyl)-1H-pyrrolo[2,3-b]pyridin-1-yl)-2-methylpropyl propionate]
7 | 51.7 mL/min/kg | 33.6 min | – | – | – | – | – | 511 min | CCCS(=O)(=O)Nc1ccc(F)c(C(=O)c2cn(C(C)OC(=O)C(C)C)c3ncc(-c4ccc(Cl)cc4)cc23)c1F (stereo not drawn) [Ex. 14, 1-(5-(4-chlorophenyl)-3-(2,6-difluoro-3-(propylsulfonamido)benzoyl)-1H-pyrrolo[2,3-b]pyridin-1-yl)ethyl isobutyrate]
8 | – | – | – | – | 18.6 min | – | – | 39.6 min | CCCS(=O)(=O)Nc1ccc(F)c(C(=O)c2cn(COC(=O)CC)c3ncc(-c4ccc(Cl)cc4)cc23)c1F [Ex. 15, (5-(4-chlorophenyl)-3-(2,6-difluoro-3-(propylsulfonamido)benzoyl)-1H-pyrrolo[2,3-b]pyridin-1-yl)methyl propionate]
9 | – | – | – | – | 157 min | ∞ | – | – | CCCS(=O)(=O)Nc1ccc(F)c(C(=O)c2cn(C(OC(=O)C(C)C)C(C)C)c3ncc(-c4ccc(Cl)cc4)cc23)c1F (stereo not drawn) [Ex. 16, 1-(5-(4-chlorophenyl)-3-(2,6-difluoro-3-(propylsulfonamido)benzoyl)-1H-pyrrolo[2,3-b]pyridin-1-yl)-2-methylpropyl isobutyrate]
10 | 5.52 mL/min/kg | 78.8 min | – | – | 9.61 min | – | – | 6.08 min | CCCS(=O)(=O)Nc1ccc(F)c(C(=O)c2cn(COC(=O)C(N)C(C)C)c3ncc(-c4ccc(Cl)cc4)cc23)c1F.Cl (stereo not drawn) [Ex. 18, (5-(4-chlorophenyl)-3-(2,6-difluoro-3-(propylsulfonamido)benzoyl)-1H-pyrrolo[2,3-b]pyridin-1-yl)methyl 2-amino-3-methylbutanoate hydrochloride]
11 | – | – | – | – | 5.9 min | – | – | 7.47 min | CCCS(=O)(=O)Nc1ccc(F)c(C(=O)c2cn(COC(=O)CN)c3ncc(-c4ccc(Cl)cc4)cc23)c1F.Cl [Ex. 19, (5-(4-chlorophenyl)-3-(2,6-difluoro-3-(propylsulfonamido)benzoyl)-1H-pyrrolo[2,3-b]pyridin-1-yl)methyl 2-aminoacetate hydrochloride]
12 | 23.9 mL/min/kg | 72.8 min | 535 mL/min/kg | 4.6 min | 15.2 min | – | – | 6.81 min | CCCS(=O)(=O)Nc1ccc(F)c(C(=O)c2cn(COC(=O)[C@@H](N)C(C)CC)c3ncc(-c4ccc(Cl)cc4)cc23)c1F.Cl (stereo partly drawn) [Ex. 22, (2S)-(5-(4-chlorophenyl)-3-(2,6-difluoro-3-(propylsulfonamido)benzoyl)-1H-pyrrolo[2,3-b]pyridin-1-yl)methyl-2-amino-3-methylpentanoate hydrochloride]
13 | 15.4 mL/min/kg | 113 min | 429 mL/min/kg | 5.8 min | 3.42 min | – | – | 3.06 min | CCCS(=O)(=O)Nc1ccc(F)c(C(=O)c2cn(COC(=O)[C@@H](N)CC(C)C)c3ncc(-c4ccc(Cl)cc4)cc23)c1F.Cl [Ex. 23, (S)-(5-(4-chlorophenyl)-3-(2,6-difluoro-3-(propylsulfonamido)benzoyl)-1H-pyrrolo[2,3-b]pyridin-1-yl)methyl 2-amino-4-methylpentanoate hydrochloride]
14 | – | – | – | – | – | – | – | 81.6 min | CCCS(=O)(=O)Nc1ccc(F)c(C(=O)c2cn(COC(=O)OCC)c3ncc(-c4ccc(Cl)cc4)cc23)c1F [Ex. 26, (5-(4-chlorophenyl)-3-(2,6-difluoro-3-(propylsulfonamido)benzoyl)-1H-pyrrolo[2,3-b]pyridin-1-yl)methyl ethyl carbonate]
15 | – | – | – | – | 55.9 min | – | – | 79.6 min | CCCS(=O)(=O)Nc1ccc(F)c(C(=O)c2cn(COC(=O)OC(C)C)c3ncc(-c4ccc(Cl)cc4)cc23)c1F [Ex. 27, (5-(4-chlorophenyl)-3-(2,6-difluoro-3-(propylsulfonamido)benzoyl)-1H-pyrrolo[2,3-b]pyridin-1-yl)methyl isopropyl carbonate]
16 | – | – | – | – | 49.5 min | – | – | 57.9 min | CCCS(=O)(=O)Nc1ccc(F)c(C(=O)c2cn(C(C)OC(=O)OCC)c3ncc(-c4ccc(Cl)cc4)cc23)c1F (stereo not drawn) [Ex. 28, 1-(5-(4-chlorophenyl)-3-(2,6-difluoro-3-(propylsulfonamido)benzoyl)-1H-pyrrolo[2,3-b]pyridin-1-yl)ethyl ethyl carbonate]
17 | – | – | – | – | 56.3 min | ∞ | – | – | CCCS(=O)(=O)Nc1ccc(F)c(C(=O)c2cn(C(C)OC(=O)OC(C)C)c3ncc(-c4ccc(Cl)cc4)cc23)c1F (stereo not drawn) [Ex. 30, 1-(5-(4-chlorophenyl)-3-(2,6-difluoro-3-(propylsulfonamido)benzoyl)-1H-pyrrolo[2,3-b]pyridin-1-yl)ethyl isopropyl carbonate]

Reference: patent publication US9399639B2, “Substituted azaindole compounds, salts, pharmaceutical compositions thereof and methods of use” (Calitor Sciences, LLC, priority 2012, dated 2016)
